Where two headings read alike, the source gives them in different places.
Legend:
[1] = system: normal human peripheral blood mononuclear cells; assay: Cell viability (Presto Blue), normal human PBMCs; format: cell-based; details: for IC50: Homo sapiens, PBMC
Method: (§1) Three cancer cell lines, multiple myeloma KMS12E, Non-hodgkin's lymphoma SU-DHL4, T-cell lymphoma Hut-78, and normal human peripheral blood mononuclear cells derived from healthy individual were tested. The cells were plated in 384 well plates in RPMI medium supplemented with 10% fetal bovine serum. Cancer cells were plated at 1000 cells/well and normal cells at 10,000 cells per well in a total volume of 30 uL/well. Immediately after plating, the test compounds were added at […] concentrations: 10 uM-1 uM-0.01 uM-0.001 uM, in duplicate wells for each concentration. The cells were exposed to compounds for 70 hours at 37° C. in humidified incubator with 5% CO2. Cell viability was determined by Presto Blue reagent (Thermo Scientific/Invitrogen).

[2] = system: T-cell lymphoma Hut-78; assay: Cell viability (Presto Blue), T-cell lymphoma Hut-78; format: cell-based; details: Homo sapiens, HuT78, Hut-78 cells, 70 hours exposure
Method: as §1

[3] = system: multiple myeloma KMS12E; assay: Cell viability (Presto Blue), multiple myeloma KMS12E; format: cell-based; details: Homo sapiens, KMS12E cells, 70 hours exposure, read-out: Plasma cell myeloma, IC50
Method: as §1

[4] = system: IL-23 secretion by LPS-induced PBMCs; assay: IL-23 secretion by LPS-stimulated human PBMCs (ELISA); format: cell-based; details: 2 h pre-incubation, 100 ng/mL LPS 18 hours
Method: Human PBMCs were plated in 96 well plate at a density of 150,000 cells per a well in RPMI medium supplemented with 10% FBS. The cells were pre-incubated with compounds for 2 h. Following pre-incubation, the cells were stimulated with 100 ng/mL LPS for 18 hours. The secreted IL-23 was determined by ELISA (Human IL-23 Quantikine ELISA Kit, R&D cat #D2300B).

[5] = system: Acute myelomonocytic leukemia cells ML-2; assay: Caspase3/7 activity (Caspase-Glo 3/7) in ML-2 cells; format: cell-based; details: 15 h, 24 h and 41 h after exposure
Method: Acute myelomonocytic leukemia cells ML-2 were plated in 96 well plate at a density of 50,000 cells per a well in RPMI medium supplemented with 10% FBS. The cells were exposed to compounds and the early apoptosis marker, Caspase3/7 activity, was measured in the cells at 15 h, 24 h and 41 h after exposure to compounds. The caspase activity was determined using Caspase-Glo® 3/7 Assay (Promega) and according to the protocol provided by the manufacturer.

[6] = system: multiple myeloma KMS12E, Non-hodgkin's lymphoma SU-DHL4, T-cell lymphoma Hut-78; assay: Cell viability (Presto Blue), panel of cancer cell lines; format: cell-based; details: Homo sapiens; range over KMS12E, SU-DHL4, Hut-78; 70 hours; read-out: IC50, viability of the three cancer cell lines
Method: Three cancer cell lines, multiple myeloma KMS12E, Non-hodgkin's lymphoma SU-DHL4, T-cell lymphoma Hut-78, and normal human peripheral blood mononuclear cells derived from healthy individual were tested. The cells were plated in 384 well plates in RPMI medium supplemented with 10% fetal bovine serum. Cancer cells were plated at 1000 cells/well and normal cells at 10,000 cells per well in a total volume of 30 uL/well. Immediately after plating, the test compounds were added at five concentrations: 10 uM-1 uM-0.01 uM-0.001 uM, in duplicate wells for each concentration. The cells were exposed to compounds for 70 hours at 37° C. in humidified incubator with 5% CO2. Cell viability was determined by Presto Blue reagent (Thermo Scientific/Invitrogen).

[7] = target: T1, Full length human recombinant PIKFYVE (Homo sapiens, UniProt Q9Y2I7); assay: Biochemical PIKfyve assay; details: 2 nM enzyme, 10 μM ATP, 3 h room temperature
T1 construct: Full length human recombinant PIKFYVE expressed in baculovirus expression system as N-terminal GST-fusion protein; GST (N); purchased Carna Biosciences (Kobe, Japan); host or cells: baculovirus expression system
Method: Full length human recombinant PIKFYVE expressed in baculovirus expression system as N-terminal GST-fusion protein (265 kDa) was obtained from Carna Biosciences (Kobe, Japan). […] The kinase reactions were allowed to proceed for 3 h at room temperature. […] Terminated plates were analyzed on a microfluidic electrophoresis instrument (Caliper LabChip® 3000, Caliper Life Sciences/Perkin Elmer).

[8] = viability, Presto Blue, 70 hours exposure, read-out: Normal human PBMCs, IC50

T1 sequence (Q9Y2I7 whole entry, the tested form may be a part): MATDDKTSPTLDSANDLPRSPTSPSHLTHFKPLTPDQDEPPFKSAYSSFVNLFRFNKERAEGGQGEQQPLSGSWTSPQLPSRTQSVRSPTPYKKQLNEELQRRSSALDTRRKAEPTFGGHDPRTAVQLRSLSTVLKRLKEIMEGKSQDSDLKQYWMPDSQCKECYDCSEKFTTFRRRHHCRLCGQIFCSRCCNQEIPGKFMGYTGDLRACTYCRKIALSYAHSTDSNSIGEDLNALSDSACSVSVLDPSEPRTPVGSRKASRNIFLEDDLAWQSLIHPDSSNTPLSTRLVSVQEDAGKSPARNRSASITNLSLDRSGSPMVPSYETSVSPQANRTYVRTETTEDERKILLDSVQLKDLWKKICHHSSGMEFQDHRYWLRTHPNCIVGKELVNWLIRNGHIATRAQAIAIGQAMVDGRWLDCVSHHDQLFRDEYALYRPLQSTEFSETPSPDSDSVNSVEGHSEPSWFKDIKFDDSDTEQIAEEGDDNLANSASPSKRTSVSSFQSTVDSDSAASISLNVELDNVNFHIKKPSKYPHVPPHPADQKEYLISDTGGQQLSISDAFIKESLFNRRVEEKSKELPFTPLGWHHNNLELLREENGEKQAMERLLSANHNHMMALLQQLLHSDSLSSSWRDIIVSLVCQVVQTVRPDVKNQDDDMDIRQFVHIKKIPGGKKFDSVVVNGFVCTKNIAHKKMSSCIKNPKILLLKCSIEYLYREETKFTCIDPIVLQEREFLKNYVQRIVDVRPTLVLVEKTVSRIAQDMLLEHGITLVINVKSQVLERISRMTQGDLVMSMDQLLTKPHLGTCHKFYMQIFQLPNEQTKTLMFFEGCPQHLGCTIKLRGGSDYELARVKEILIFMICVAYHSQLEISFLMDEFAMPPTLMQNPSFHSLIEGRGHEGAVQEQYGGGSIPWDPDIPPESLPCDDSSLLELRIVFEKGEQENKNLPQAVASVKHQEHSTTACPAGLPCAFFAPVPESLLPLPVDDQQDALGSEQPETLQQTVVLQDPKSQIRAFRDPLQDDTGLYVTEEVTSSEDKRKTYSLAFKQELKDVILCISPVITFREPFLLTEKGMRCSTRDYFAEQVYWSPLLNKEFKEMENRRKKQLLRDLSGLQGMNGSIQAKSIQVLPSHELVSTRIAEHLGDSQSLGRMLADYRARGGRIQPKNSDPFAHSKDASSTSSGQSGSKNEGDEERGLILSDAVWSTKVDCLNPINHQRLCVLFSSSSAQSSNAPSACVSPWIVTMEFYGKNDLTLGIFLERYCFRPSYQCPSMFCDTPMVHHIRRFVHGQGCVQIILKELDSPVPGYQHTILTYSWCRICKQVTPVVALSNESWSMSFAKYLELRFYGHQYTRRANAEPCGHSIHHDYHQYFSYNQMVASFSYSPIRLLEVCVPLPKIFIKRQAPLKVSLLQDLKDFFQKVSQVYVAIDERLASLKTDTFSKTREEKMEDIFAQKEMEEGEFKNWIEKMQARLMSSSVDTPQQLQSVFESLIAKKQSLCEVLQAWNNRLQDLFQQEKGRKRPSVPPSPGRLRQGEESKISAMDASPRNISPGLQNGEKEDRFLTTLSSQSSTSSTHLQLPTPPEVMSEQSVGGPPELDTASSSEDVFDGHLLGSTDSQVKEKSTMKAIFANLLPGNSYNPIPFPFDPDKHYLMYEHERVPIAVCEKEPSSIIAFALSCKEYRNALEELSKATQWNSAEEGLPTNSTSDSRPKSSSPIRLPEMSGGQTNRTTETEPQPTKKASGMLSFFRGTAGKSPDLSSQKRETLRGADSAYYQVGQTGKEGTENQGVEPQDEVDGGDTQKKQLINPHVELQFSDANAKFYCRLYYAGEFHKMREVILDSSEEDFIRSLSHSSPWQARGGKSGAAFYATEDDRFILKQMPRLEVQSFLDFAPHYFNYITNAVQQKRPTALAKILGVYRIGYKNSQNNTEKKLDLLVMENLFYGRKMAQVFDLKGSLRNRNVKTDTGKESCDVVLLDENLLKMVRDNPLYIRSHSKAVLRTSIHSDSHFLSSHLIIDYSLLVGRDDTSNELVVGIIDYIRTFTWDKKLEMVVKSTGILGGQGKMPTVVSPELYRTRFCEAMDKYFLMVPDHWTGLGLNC

SMILES | IC50 ([1]; 70 hours, Example 14 text, read-out: IC50, viability of normal PBMCs) | IC50 [1, 8] | IC50 [2] | IC50 [3] | secretion of IL-23 [4] | Caspase3/7 activation (early apoptosis marker) [5] | IC50 [6] | IC50 [7] | selectivity towards cancer cells over normal cells ([1]; Hut-78 and KMS12E vs normal human PBMCs)
Cc1cccc(/C=N/Nc2cc(N3CCOCC3)n3nc(-c4ccncc4)cc3n2)c1 [APY0201] | > 10000 nM | > 10000 nM | 28 nM | 74 nM | completely blocked secretion of IL-23 | induce apoptosis | 33 to 46 nM |  | 
Cc1cccc(/C=N/Nc2cc(N3CCOCC3)n3nc(-c4ccncc4)nc3n2)c1 [Compound 1, (E)-4-(5-(2-(3-methylbenzylidene)hydrazinyl)-2-(pyridin-4-yl)-[1,2,4]-triazolo[1,5-a]pyrimidin-7-yl)morpholine] |  | > 10000 nM | 47 nM | 115 nM | completely blocked secretion of IL-23 | triggered Caspase3/7 activation |  | 10 nM | showed selectivity towards cancer cells over normal cells
Cc1cccc(/C=N/Nc2cc(N3CCOCC3)nc(OCCc3ccccn3)n2)c1 [Apilimod, apilimod] |  | > 10000 nM | 27 nM | 73 nM |  | induce apoptosis |  |  | 

Reference: patent US11987583B2, “Fused triazolo-pyrimidine compounds having useful pharmaceutical application” (PIKSci Inc., priority 2017, dated 2024)
